From patent publication US5399785A, “Tyrosinase activity inhibitor” (Nippon Paint Co., Ltd., priority 1992, dated 1995)

Experiments:
tyrosinase (Sigma Co.) = experiment: Measurement of tyrosinase activity inhibition (L-DOPA substrate, absorbance at 417 nm); type: biochemical; settings: substrate 2 mM L-DOPA, phosphate-potassium buffer pH 6.8, tyrosinase 0.5 mg/ml, absorbance 417 nm; read-out: IC50, concentration of tyrosinase activity inhibitor when the tyrosinase activity inhibition (%) is 50%
Protocol: The measurement was conducted by the following method.
The reaction reagent used are as follows:
Substrate: 2 mM L-DOPA (Wako Junyaku Co.)
Buffer: 0.1 mM phosphate-potassium solution (pH 6.8)
Inhibitor: 1% solution of the compound of the formula (I), 4-ethylresorcinol, compound of the formula (II), 5-methylresorcinol and compound of the formula (III), 6,6'-di-n-propyl-2,2',4,4'-tetrahydroxydiphenylmethane
Enzyme: tyrosinase (Sigma Co.), 0.5 mg/ml
(2) Measurement of tyrosinase activity inhibition %
In the case of measuring tyrosinase activity inhibition %, a sample solution (No.1 to No.3) was prepared in a spectrophotometric cell (1 ml), by mixing each ingredient in the following formulation shown in Table 1. […]
Formulation of sample solution (ml)
An enzyme solution (0.20 ml) was added to the cell. Three minutes later, the measurement of temporal changes of an absorbance (417 nm) by means of a spectrophotometer had started. The inhibition % was calculated based on the following equation:
Inhibition %=[1-(Ab.3-Ab.1/Ab.2-Ab.1)]×100

[1] = prior-art statement, no test described; cited from earlier work
tyrosinase = settings: as described in Japanese Patent Kokai No. 4-169515; cited from earlier work

Row | Compound | IC50 (tyrosinase (Sigma Co.)) [µM] | also measured
1 | CCCc1cc(O)cc(O)c1 [drawing 5 n-Propyl] | 500 | 
2 | CCCCCc1cc(O)cc(O)c1 [drawing 5 n-Pentyl] | 200 | 
3 | OC[C@H]1O[C@@H](Oc2ccc(O)cc2)[C@H](O)[C@@H](O)[C@@H]1O [arbutin] |  | toxicity [1]: has toxicity
4 | CCc1cc(O)cc(O)c1 [drawing 5 Ethyl] | 700 | 
5 | NC[C@H]1CC[C@H](C(=O)O)CC1 [tranexamic acid] |  | tyrosinase activity inhibition effect (tyrosinase): low tyrosinase activity inhibition effect
6 | Cc1cc(O)cc(O)c1 [drawing 5 Methyl, 5-methylresorcinol] | 5000 | 

More lines, main results first:

Row | IC50 (tyrosinase (Sigma Co.)) [µM] | Compound | also measured
7 | 200 | CCCCCCCc1cc(O)cc(O)c1 [drawing 5 n-Heptyl] | 
8 | 0.9 | CCCc1ccc(O)cc1O [drawing 4 n-Propyl] | 
9 | 0.8 | CCCCCc1ccc(O)cc1O [drawing 4 n-Pentyl] | 
10 | 2 | CCc1ccc(O)cc1O [drawing 4 Ethyl, 4-ethylresorcinol] | 
11 | 0.9 | CCCCCCCCCc1ccc(O)cc1O [drawing 4 n-Nonyl] | 
12 | 200 | CCCCCCCCCc1cc(O)cc(O)c1 [drawing 5 n-Nonyl] | 
13 | 8 | Cc1ccc(O)cc1O [drawing 4 Methyl] | 
14 | 25 | CCCc1cc(O)cc(O)c1Cc1c(O)cc(O)cc1CCC [Example 3, 6,6'-di-n-propyl-2,2',4,4'-tetrahydroxydiphenylmethane] | 
15 | 0.7 | CCCCCCCc1ccc(O)cc1O [drawing 4 n-Heptyl] | 
